How the values were obtained:
matriptase [1] = test: Induction of matriptase activation in A1N4 mammary epithelial cells (immunoblot of two-chain form with mAb M69); format: cell-based, human; details: for induction of matriptase activation (two-chain form): A1N4 cells, qualitative; for concentration at which maximal activation of matriptase was achieved: intact A1N4 cells
Procedure: FIG. 22 LPA and S1P induce the activation of matriptase.
(§1) Immunoblotting analysis: Immunobloting was conducted as previously described. Proteins were separated by 10% SDS-PAGE, transferred overnight to nitrocellulose sheets (Schleicher & Schuell, Keene, N.H.) or polyvinylidene fluoride (PVDF) and subsequently probed with mAb, as indicated. Immuno-reactive polypeptides were visualized using peroxidase-labeled anti-rat immunoglobulin and the ECL detection system (NEN, Boston, Mass.).
Induction of matriptase activation in A1N4 mammary epithelial cells: To serum starve 184 A1N4 cells, the cells were plated at 50-60% confluence, and maintained for 48-72 hrs in medium containing 0.5% serum. The activation of matriptase was then induced by incubating the cells with Iscove's Modified Dulbecco's Medium (IMEM), containing serum, as indicated in the Figure legend. Cells were then scrapped in PBS, and pelleted by centrifigation with a 5 min spin (1500×g). The cell pellets were lysed on ice for 20 min in lysis buffer (1% TritonX-100 in phosphate buffered saline). Cellular debris were removed by centrifugation for 10 min at 14,000×g. Equal protein amounts, as determined by the BCA protein micro assay (Pierce), were resolved under non-reducing, non-boiled conditions, by sodium dodecyl sulfate-polyacrylamide gel electrophoresis (SDS-PAGE), and electroblotted onto PVDF membranes (Millipore).

[2] = system: A1N4 human mammary epithelial cells; test: Immunofluorescence of actin cytoskeleton rearrangement in A1N4 cells; format: cell-based
Procedure: FIG. 23 Immunofluorescence of actin rearrangement and activated matriptase following LPA and SIP stimulation.
Immunofluorescence: Cells were fixed with 2% paraformaldehyde for 10 min. The two-chain form matriptase was detected with mAb M69 and total matriptase was detected with mAb M32 for 1 hr at room temperature. This was followed by an 1 hr incubation with 1:200 dilution of FITC-conjugated goat anti-mouse (Jackson Immunoresearch, PA). Cells were viewed on a Zeiss microscope, and photographed with Kodak film.

[3] = system: mRNA levels for matriptase or HAI-1; test: mRNA levels in estrogen-depleted MCF-7 cells after hormone treatment; format: cell-based, human; details: data not shown
Procedure: Northern blotting—Total RNA was extracted from cell lines with RNAzol reagent (Tel-Test, Inc., Friendswood, Tex.) according to the manufacturer's instructions. Ten micrograms of total RNA from each cell line was resolved by electrophoresis on a 1.2% phosphate-buffered agarose gel containing 2M formaldehyde. RNA was subsequently transferred to hybond-N nylon membranes (Amersham Pharmacia Biotech, Buckinghamshire, England) and hybridized to ^32P-labeled riboprobes at 65° C. for 36 hours, followed by three washes in 0.1×SSC/0.1%SDS at 80° C. for 30 minutes each to remove unbound probe. To generate the labeled riboprobes, the coding sequences of Matriptase and HAI-1 were cloned into the pcDNA3.1 vector (Invitrogen, San Diego, Calif.), and were linearized with an appropriate restriction enzyme just 5′ of the coding sequences. These linearized vectors were used in in vitro SP6 RNA polymerase reactions with ^32P-UTP (3000 Ci/mmol, NEN, Boston, Mass.) to generate labeled antisense riboprobes. To control for approximately equal loading of RNA from each cell line, labeled riboprobes directed against the message of the ribosomal protein 36B4 were generated in a similar fashion, except that a vector containing approximately 500 bp of the coding sequence was used. […]

matriptase [4] = biological target: T1, matriptase (Homo sapiens, UniProt Q9Y5Y6); test: Gelatin zymography of matriptase and matriptase/HAI-1 complex; format: biochemical; details: 1 mg/ml gelatin zymogram
T1 construct: separated into two groups of polypeptides with apparent sizes of 45-kDa (A chain) and 25-kDa (B chain); from tissue; host or cells: human milk
T1 sequence (Q9Y5Y6 190-614 limits assumed): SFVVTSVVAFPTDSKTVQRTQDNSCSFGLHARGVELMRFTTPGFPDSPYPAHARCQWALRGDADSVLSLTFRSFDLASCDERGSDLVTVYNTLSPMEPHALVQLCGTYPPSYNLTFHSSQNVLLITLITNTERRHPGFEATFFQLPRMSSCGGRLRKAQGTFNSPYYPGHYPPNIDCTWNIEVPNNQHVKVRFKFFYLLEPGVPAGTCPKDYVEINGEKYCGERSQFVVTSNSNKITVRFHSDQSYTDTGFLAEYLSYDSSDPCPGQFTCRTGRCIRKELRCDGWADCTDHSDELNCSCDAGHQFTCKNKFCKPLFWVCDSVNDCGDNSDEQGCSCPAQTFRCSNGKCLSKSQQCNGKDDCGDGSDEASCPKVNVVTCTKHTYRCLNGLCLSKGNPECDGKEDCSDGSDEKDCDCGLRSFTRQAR
T1 sequence (Q9Y5Y6 615-854 limits assumed): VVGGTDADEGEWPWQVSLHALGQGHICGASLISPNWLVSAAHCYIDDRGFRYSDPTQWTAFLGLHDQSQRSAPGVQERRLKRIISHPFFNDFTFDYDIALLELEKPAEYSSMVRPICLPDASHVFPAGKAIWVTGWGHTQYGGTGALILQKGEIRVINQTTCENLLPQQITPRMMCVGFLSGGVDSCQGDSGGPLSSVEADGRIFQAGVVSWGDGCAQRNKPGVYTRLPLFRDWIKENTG
Excerpt: (§2) FIG. 11 Inhibition of matriptase by HAI-1. Matriptase and HAI-1 were isolated from human milk by anti-matriptase mAb 21-9 immunoaffinity chromatography, as described previously, and were maintained in an uncomplexed status in elution buffer, 0.1 M glycine, pH 2.4.

matriptase [5] = biological target: T1, matriptase; test: Binding of HAI-1 to matriptase (95-kDa complex formation, immunoblot with mAb 21-9)
Procedure: as §2, §1

matriptase [6] = biological target: T1, matriptase; test: Proteolytic activity assay (cleavage rate of fluorescent substrate BOC-Gln-Ala-Arg-AMC); format: biochemical; details: pH 8.0, 37° C.
Procedure: as §2
[…] Louis), as a substrate. The rate of cleavage was determined with a fluorescence spectrophotometer (Hitachi, F-4500).

## lysophosphatidic acid [LPA]
Matriptase [1]
  induction of matriptase activation (two-chain form): could mimic serum and LDL induced activation of matriptase
  concentration at which maximal activation of matriptase was achieved: 1 µg/mL
[2]
  actin cytoskeleton rearrangement (stress-fiber formation): induced actin cytoskelaton reorganization

## CCCCCCCCCCCCC/C=C/[C@@H](O)[C@@H](N)COP(=O)(O)O [S1P, shingosine 1-phosphate]
Matriptase [1]
  induction of matriptase activation (two-chain form): could mimic serum and LDL induced activation of matriptase
  concentration at which maximal activation of matriptase was achieved: 0.001 µg/mL
Matriptase [1]; S1P versus LPA
  potency in inducing the activation of matriptase relative to LPA: 100 fold
Matriptase [1]; after S1P addition
  time at which activation of matriptase started after addition: ≤ 5 min
  time to maximal activation of matriptase: ≤ 10 min
Matriptase [1]; molar value in brackets
  concentration at which maximal activation of matriptase was achieved: 2.6 nM
[2]
  actin cytoskeleton rearrangement (stress-fiber formation): induced actin cytoskelaton reorganization

## C=C1[C@@H](C)[C@H]2[C@H](Cc3ccccc3)NC(=O)[C@]23[C@H](OC(C)=O)/C=C/[C@@](C)(O)C(=O)[C@@H](C)C/C=C/[C@H]3[C@@H]1O [cytochalasin D]
Matriptase [1]; pretreatment of cells before S1P
  block of S1P-induced activation of matriptase: failed to block the activation of matriptase by S1P

## Ceramide1-P
Matriptase [1]
  induction of matriptase activation (two-chain form): induced the activation of matriptase although at higher concentration than S1P

## CC(=O)[C@H]1CC[C@H]2[C@@H]3CCC4=CC(=O)CC[C@]4(C)[C@H]3CC[C@]12C [progesterone]
[3]; 100 nM 17β-estradiol plus 100 nM progesterone
  change in mRNA levels for matriptase or HAI-1: no change

## C[C@]12CC[C@@H]3c4ccc(O)cc4CC[C@H]3[C@@H]1CC[C@@H]2O [17β-estradiol]
[3]; 100 nM 17β-estradiol
  change in mRNA levels for matriptase or HAI-1: no change

B1: HAI-1: type-1, integral membrane, Kunitz-type serine protease inhibitor, cognate inhibitor of matriptase (protein, UniProt O43278 36-529, looked up)
Kunitz-type protease …: GPPPAPPGLPAGADCLNSFTAGVPGFVLDTNASVSNGATFLESPTVRRGWDCVRACCTTQNCNLALVELQPDRGEDAIAACFLINCLYEQNFVCKFAPREGFINYLTREVYRSYRQLRTQGFGGSGIPKAWAGIDLKVQPQEPLVLKDVENTDWRLLRGDTDVRVERKDPNQVELWGLKEGTYLFQLTVTSSDHPEDTANVTVTVLSTKQTEDYCLASNKVGRCRGSFPRWYYDPTEQICKSFVYGGCLGNKNNYLREEECILACRGVQGGPLRGSSGAQATFPQGPSMERRHPVCSGTCQPTQFRCSNGCCIDSFLECDDTPNCPDASDEAACEKYTSGFDELQRIHFPSDKGHCVDLPDTGLCKESIPRWYYNPFSEHCARFTYGGCYGNKNNFEEEQQCLESCRGISKKDVFGLRREIPIPSTGSVEMAVAVFLVICIVVVVAILGYCFFKNQRKDFHGHHHHPPPTPASSTVSTTEDTEHLVYNHTTRPL
Matriptase [4]
  gelatinolytic activity of the 95-kDa matriptase/HAI-1 complex: only trace amounts of gelatinolytic activity
Matriptase [5]; pH 8.0, 37° C.
  incubation time after which uncomplexed matriptase was undetectable by immunoblot: 30 min
Matriptase [5]; pH raised to 8.0, 37° C.
  formation of 95-kDa matriptase/HAI-1 complex: rapidly occurred
Matriptase [6]
  rate of cleavage of synthetic fluorescent substrate by matriptase after HAI-1 binding: drastically decreased

— patent publication US20030170245A1, “Activation of matriptase and diagnostic and therapeutic methods based thereon” (priority 2002, published 2003)
